In this test the target is T1, STAT5b (Homo sapiens, UniProt P51692).
T1 sequence (P51692 1-787): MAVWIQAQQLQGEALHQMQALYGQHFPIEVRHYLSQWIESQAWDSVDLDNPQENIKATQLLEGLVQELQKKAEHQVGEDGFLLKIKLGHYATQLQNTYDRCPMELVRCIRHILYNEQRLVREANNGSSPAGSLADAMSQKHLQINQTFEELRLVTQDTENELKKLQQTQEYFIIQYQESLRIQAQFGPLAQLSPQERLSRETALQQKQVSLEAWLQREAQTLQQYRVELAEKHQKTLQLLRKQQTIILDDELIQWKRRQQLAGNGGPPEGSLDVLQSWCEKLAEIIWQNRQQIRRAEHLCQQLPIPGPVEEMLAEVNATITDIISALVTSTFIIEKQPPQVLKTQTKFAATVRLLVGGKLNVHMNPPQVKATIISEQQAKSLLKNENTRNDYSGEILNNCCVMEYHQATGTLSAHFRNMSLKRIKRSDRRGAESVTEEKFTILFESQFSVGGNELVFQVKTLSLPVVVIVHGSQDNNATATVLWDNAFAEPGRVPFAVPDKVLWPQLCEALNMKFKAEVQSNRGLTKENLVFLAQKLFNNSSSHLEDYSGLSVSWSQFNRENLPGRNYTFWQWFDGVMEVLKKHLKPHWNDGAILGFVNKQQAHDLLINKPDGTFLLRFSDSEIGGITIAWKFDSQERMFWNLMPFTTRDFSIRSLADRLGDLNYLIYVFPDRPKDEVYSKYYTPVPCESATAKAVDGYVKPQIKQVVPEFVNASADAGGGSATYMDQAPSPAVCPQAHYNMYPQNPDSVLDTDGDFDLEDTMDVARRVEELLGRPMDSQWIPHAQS
The test is classed as binding.

A word on the Ki: it is a dissociation constant, usually derived from enzyme kinetics or from competition with a known ligand. Higher therefore signals lower affinity.

Where a name gives a salt, the structure may show the parent alone.

For the compound `CC[C@@]1(O)C(=O)OCc2c1cc1n(c2=O)Cc2cc3c(CN(C)C)c(O)ccc3nc2-1` [compound 108, topotecan hydrochloride], the Ki lay in the range of 1 to 3 µM.
